Experimental data published in US5574043A, “Certain [1,2,5-thiadiazol-4-yl]-1-azabicyclo [3.2.1]octane derivatives and their pharmaceutical uses” (Novo Nordisk A/S, priority 1995, dated 1996).
Counter-ions that a name gives are not always drawn.

What was measured:
[1] = in vivo; cited from earlier work
[2] = system: central and peripheral muscarinic effects; details: cited from earlier work
[3] = molecular target: muscarinic acetylcholine receptors; assay: Inhibition of specific binding of 3H-Oxotremorine-M (OXO BINDING) in vitro, rat cortex; set-up: species or system male Wistar rats; details: rat cortex homogenate, 3H-Oxotremorine 1.0 nM, 30 min at 25° C., pH 7.4
Procedure, shortened: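 Washed male Wistar rat cortex membranes in 20 mM Hepes pH 7.4 incubated 30 min at 25° C with 1.0 nM ³H-Oxotremorine-M (final) and test compound; nonspecific binding with 1 μg/ml arecoline. Filtration and scintillation counting; IC50 (ng/ml) for specific binding calculated assuming mass-action kinetics.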

| Compound | Inhibition in vitro OXO BINDING IC50 [3] | other results |
| --- | --- | --- |
| COC(=O)C1=CCCN(C)C1 [Arecoline, methyl 1-methyl-1,2,5,6-tetrahydropyridine-3carboxylate] |  | biological half life [1]: very short; separation between central and peripheral muscarinic effects [2]: small separation |
| COc1nsnc1C1(OC)CN2CCC1CC2.O=C(O)C(=O)O (stereo not shown) [Compound 3, 3-Methoxy-3-(3-methoxy-1,2,5-thiadiazol-4-yl)-1-azabicyclo[2.2.2]octane oxalate] | 208 ng/mL |  |
| CC(C)CCSc1nsnc1[C@H]1CN2CCC[C@H]1C2 (relative stereo) [Compound 77, Exo-6-(3-isopentylthio-1,2,5-thiadiazol-4-yl)-1-azabicyclo[3.2.1]octane] | 0.89 ng/mL |  |
| CCCCCOc1nsnc1C1=C(Cl)C2CCCN(C1)C2 (stereo not shown) [Compound 63, 4-Chloro-3-(3-pentyloxy-1,2,5-thiadiazol-4-yl)-1-azabicyclo[3.3.1]non-3-eneoxalate] | 8.2 ng/mL |  |
| CCCCCCSc1nsnc1[C@H]1CN2CC[C@H]1C2 (relative stereo) [Compound 39, Exo-3-(3-hexylthio-1,2,5-thiadiazol-4-yl)-1-azabicyclo[2.2.1]heptane oxalate] | 0.52 ng/mL |  |
| c1ccc(CCCSc2nsnc2[C@H]2CN3CC[C@H]2C3)cc1 (relative stereo) [Compound 41, Exo-3-(3-(3-phenylpropylthio)-1,2,5-thiadiazol-4-yl)-1-azabicyclo[2.2.1]heptane oxalate] | 0.56 ng/mL |  |
| N#CCCCSc1nsnc1[C@H]1CN2CCC[C@@H]1C2 (relative stereo) [Compound 91, Endo-6-(3-(3-cyanopropylthio)-1,2,5-thiadiazol-4-yl)-1-azabicyclo[3.2.1]octane oxalate] | 5.2 ng/mL |  |
| c1ccc(CCCSc2nsnc2[C@H]2CN3CCC[C@@H]2C3)cc1 (relative stereo) [Compound 27, Endo-6-(3-(3-phenylpropylthio)-1,2,5-thiadiazol-4-yl)-1-azabicyclo[3.2.1]octane oxalate] | 17 ng/mL |  |
| CCCCCSc1nsnc1[C@H]1CN2CCC[C@H]1C2 (relative stereo) [Compound 31, Exo-6-(3-pentylthio-1,2,5-thiadiazol-4-yl)-1-azabicyclo[3.2.1]octane oxalate] | 0.6 ng/mL |  |
| O=C(O)/C=C/C(=O)O.c1csc(CCCOc2nsnc2C2CN3CCC2CC3)c1 (stereo not shown) [Compound 110, 3-(3-(3-(2-Thienyl)propoxy)-1,2,5-thiadiazol-4-yl)-1-azabicyclo[2.2.2]octane fumarate] | 1.1 ng/mL |  |
| N#CCSc1nsnc1[C@H]1CN2CCC[C@H]1C2 (relative stereo) [Compound 79, Exo-6-(3-cyanomethylthio-1,2,5-thiadiazol-4-yl)-1-azabicyclo[3.2.1]octane oxalate] | 0.50 ng/mL |  |
| CC(C)CCCOc1nsnc1[C@@H]1CN2CCC[C@@H]1C2 (relative stereo) [Compound 123, Exo-6-(3-isohexyloxy-1,2,5-thiadiazol-4-yl)-1-azabicyclo[3.2.1]octane dioxalate] | 0.47 ng/mL |  |
| CC(C)CCOc1nsnc1C1CN2CCC1CC2.O=C(O)C(=O)O (stereo not shown) [Compound 51, 3-(3-Isopentyloxy-1,2,5-thiadiazol-4-yl)-1-azabicyclo[2.2.2]octane oxalate] | 0.89 ng/mL |  |
| CCCSc1nsnc1C1CN2CCC1CC2.O=C(O)C(=O)O (stereo not shown) [Compound 53, 3-(3-Propylthio-1,2,5-thiadiazol-4-yl)-1-azabicyclo[2.2.2]octane oxalate] | 0.3 ng/mL |  |
| CCCOc1nsnc1C1=C(Cl)C2CCCN(C1)C2 (stereo not shown) [Compound 62, 4-Chloro-3-(3-propyloxy-1,2,5-thiadiazol-4-yl)-1-azabicyclo[3.3.1]non-3-eneoxalate] | 1.9 ng/mL |  |
| CCC(C)Sc1nsnc1C1CN2CCC1CC2.O=C(O)/C=C/C(=O)O (stereo not shown) [Compound 100, 3-(3-(1-Methylpropylthio)-1,2,5-thiadiazol-4-yl)-1-azabicyclo[2.2.2]octane fumarate] | 0.82 ng/mL |  |
| CCCCCSc1nsnc1[C@H]1CN2CCC[C@@H]1C2 (relative stereo) [Compound 26, Endo-6-(3-pentylthio-1,2,5-thiadiazol-4-yl)-1-azabicyclo[3.2.1]octane oxalate] | 1.4 ng/mL |  |
| O=C(O)/C=C/C(=O)O.c1nsnc1C1CN2CCC1CC2 (stereo not shown) [Compound 132, 3-(1,2,5-Thiadiazol-3-yl)-1-azabicyclo[2.2.2]octane fumarate] | 0.96 ng/mL |  |
| Clc1nsnc1C1CN2CCC1CC2.O=C(O)C(=O)O (stereo not shown) [Compound 8, 3-(3-Chloro-1,2,5-thiadiazol-4-yl)-1-azabicyclo[2.2.2]octane oxalate] | 5.2 ng/mL |  |
| c1ccc2sc(SCCCCSc3nsnc3C3CN4CCC3CC4)nc2c1 (stereo not shown) [Compound 108, 3-(3-(4-(2-Benzothiazolyl)thio)butylthio-1,2,5-thiadiazol-4-yl)-1-azabicyclo[2.2.2]octane oxalate] | 16 ng/mL |  |
| CCCCCCSc1nsnc1C1CN2CCC1CC2.O=C(O)/C=C/C(=O)O (stereo not shown) [Compound 14, 3-(3-Hexylthio-1,2,5-thiadiazol-4-yl)-1-azabicyclo[2.2.2]octane fumarate] | 4.8 ng/mL |  |
